{"source": "patent US4055658A", "about": "“Cyanomethylphenethanolamines” (Mead Johnson & Company, priority 1976, dated 1977)", "key": {"[1]": {"test_system": "guinea pig trachea", "test": "Effect on spontaneous tone of guinea pig tracheal chain preparations", "settings": "Cavia porcellus; in vitro, bath concentration; read-out: effective bath concentration (EC) providing a 50% decrease in the spontaneous tone of the guinea pig trachea", "source_text": "(§1) Two in vitro test systems particularly useful in determining selective beta stimulant activity are: (1) effect on spontaneous tone of guinea pig tracheal chain preparations as a measure of relaxant effect on airway smooth muscle, and (2) effect on force and rate of spontaneously beating right atria of the guinea pig as a measure of beta-stimulant effect on cardiac muscle. If a beta-adrenergic agent exerts an effect on spontaneous tone of guinea pig trachea at a concentration lower than is required to affect heart force and rate, there is a positive separation ratio and the agent is considered to have bronchodilator activity with minimal cardiac stimulation. Thus, a comparison of the test agent with standard beta-stimulants such as isoproterenol or other beta-adrenergic agents can be made and relative bronchial selectivity determined."}, "[2]": {"test_system": "guinea pig right atria", "test": "Effect on force and rate of spontaneously beating right atria of the guinea pig", "settings": "Cavia porcellus, in vitro", "source_text": "as §1"}, "[3]": {"test_system": "methacholine-induced bronchoconstriction", "test": "Methacholine-induced bronchoconstriction in anesthetized rat", "type": "in vivo", "settings": "intraduodenal", "experimental": "(§2) In the rat, transient bronchoconstriction is induced with a short-lasting intravenous (i.v.) infusion of methacholine to obtain a control value and at various times thereafter following intraduodenal (i.d.) administration of the test drug. Doses of test drug blocking methacholine induced bronchoconstriction are determined. In the dog, sustained bronchoconstriction is induced by continuous i.v. infusion of serotonin and doses of test drug necessary to reverse the bronchoconstriction are determined. In both animal models, measurements of cardiovascular effects from test drug is made simultaneously with the determination of the dose reversing bronchoconstriction. These in vivo comparisons are considered particularly significant since the bronchoconstriction induced resembles asthma and intraduodenal drug dosing of the anesthetized animal (i.e., rat) is similar to oral administration to a conscious animal. In the rat, 2-hydroxy-5-[1-hydroxy-2-[(1,1-dimethyl-2-phenylethyl)animo]ethyl]benzeneacetonitrile hydrochloride at a dose of 0.5 mg./kg. and 2.0 mg./kg. of body weight antagonizes methacholine-induced bronchoconstriction by 33.5 ± 5.2% and 72.3 ± 4.0%, respectively."}, "[4]": {"test_system": "serotonin-increase pulmonary airway resistance", "test": "Serotonin-induced sustained bronchoconstriction in anesthetized dog", "type": "in vivo", "experimental": "as §2"}, "[5]": {"test_system": "heart rate", "test": "Cardiovascular effect (heart rate) measured simultaneously in the rat model", "type": "in vivo", "settings": "0.5 and 2.0 mg./kg.", "experimental": "as §2"}, "[6]": {"test_system": "heart rate", "test": "Cardiovascular effect (heart rate) measured simultaneously in the dog model", "type": "in vivo", "settings": "0.125 and 0.5 mg./kg.", "experimental": "as §2"}}, "note": "Read-outs that look alike come from different tables or passages of the source.", "data": [{"smiles": "CC(C)(Cc1ccccc1)NCC(O)c1ccc(O)c(CC#N)c1.Cl", "note": "(stereo not drawn) [2-Hydroxy-5-[1-hydroxy-2-[(1,1-dimethyl-2-phenylethyl)amino]ethyl]benzeneacetonitrile Hydrochloride]", "values": [{"measurement": "EC50", "setting": "[1]", "value": "0.0055 ± 0.0008", "unit": "µg/mL"}, {"measurement": "EC50", "setting": "[2]; force, read-out: EC50 increasing the force of guinea pig right atria", "value": "0.16 ± 0.028", "unit": "µg/mL"}, {"measurement": "EC50", "setting": "[2]; rate, read-out: EC50 increasing the rate of guinea pig right atria", "value": "0.33 ± 0.1", "unit": "µg/mL"}, {"measurement": "antagonism of methacholine-induced bronchoconstriction", "setting": "[3]; 0.5 mg./kg. of body weight", "value": "33.5 ± 5.2", "unit": "%"}, {"measurement": "antagonism of methacholine-induced bronchoconstriction", "setting": "[3]; 2.0 mg./kg. of body weight", "value": "72.3 ± 4.0", "unit": "%"}, {"measurement": "reduction of serotonin-increase pulmonary airway resistance", "setting": "[4]; 0.125 mg./kg. body weight", "value": "49.7 ± 13.4", "unit": "%"}, {"measurement": "reduction of serotonin-increase pulmonary airway resistance", "setting": "[4]; 0.5 mg./kg. body weight", "value": "96.7 ± 12.3", "unit": "%"}, {"measurement": "effect on heart rate at bronchodilating doses", "setting": "[5]", "value": "without appreciably affecting heart rate"}, {"measurement": "effect on heart rate at bronchodilating doses", "setting": "[6]", "value": "without appreciably affecting heart rate"}]}]}
